In PubChem BioAssay (NCI) one finds TGI and GI50 data, which are given here for eleven compounds.

Some test systems named below: SF-268 CNS; 786-0 renal; SK-OV-3 ovarian; COLO 205 colon; SK-MEL-28 melanoma; UO-31 renal; NCI-H460 lung; RPMI-8226 leukemia; HOP-92 NSCLC; HOP-62 NSCLC.
Common to all, as to test: NCI anticancer screen, dose series, 48 h

Molecules are shown by their SMILES.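 Tested at 5 concentrations; 48 h exposure; 96-well plates; endpoints linearly interpolated, else capped at highest concentration. At the GI50, growth is halved. At the TGI there is no net growth.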 Some results are limits rather than exact numbers.

Turning to `CCOC(=O)Nc1ccc(C)c(NC(=O)OCC)c1`, the TGI in the test on SF-268 CNS, in the test on 786-0 renal, in the test on SK-OV-3 ovarian, in the test on COLO 205 colon, in the test on SK-MEL-28 melanoma and in the test with UO-31 renal was > 100 µM in each case. Besides, the TGI in the test on NCI-H460 lung, in the test on RPMI-8226 leukemia, with HOP-92 NSCLC and in the test on HOP-62 NSCLC was > 100 µM each time.
As to `COc1ccc(/C=C2/N=C(c3ccccc3)N(c3c(C)n(C)n(-c4ccccc4)c3=O)C2=O)cc1OC`, the GI50 is > 100000 nM with SF-268 CNS; > 100000 nM with 786-0 renal; > 100000 nM with SK-OV-3 ovarian; > 100 µM with COLO 205 colon; > 100000 nM with SK-MEL-28 melanoma; > 100000 nM in the test with UO-31 renal. Moreover, the GI50 was > 100000 nM with NCI-H460 lung, > 100 µM with RPMI-8226 leukemia, > 100000 nM in the test with HOP-92 NSCLC and > 100 µM in the test with HOP-62 NSCLC. For the same compound, the TGI in the test on SF-268 CNS, in the test with 786-0 renal, in the test with SK-OV-3 ovarian, in the test with COLO 205 colon, with SK-MEL-28 melanoma and with UO-31 renal was > 100 µM each time. Moreover, the TGI in the test on NCI-H460 lung, in the test with RPMI-8226 leukemia, in the test with HOP-92 NSCLC and in the test on HOP-62 NSCLC was > 100 µM throughout.
Consider `OCC1OC(c2nc(C3=NCCCN3)cs2)C(O)C1O` (stereo not given), for which the TGI in the test with SF-268 CNS, in the test on 786-0 renal, in the test on SK-OV-3 ovarian, in the test on COLO 205 colon, in the test on SK-MEL-28 melanoma and with UO-31 renal was > 100 µM each time. Besides, the TGI with NCI-H460 lung, with RPMI-8226 leukemia, in the test with HOP-92 NSCLC and with HOP-62 NSCLC was > 100 µM in each case.
Regarding `O=C1/C(=C/c2ccc(Cl)cc2)CCC1CCN1CCOCC1` (stereo not given), the TGI in the test on SF-268 CNS is > 100 µM; with 786-0 renal, > 100 µM; with SK-MEL-28 melanoma it was > 100 µM; in the test with UO-31 renal, > 100 µM; with NCI-H460 lung, > 100 µM; with RPMI-8226 leukemia, 64.4 µM. In addition, the TGI with HOP-92 NSCLC and with HOP-62 NSCLC was > 100 µM in each case.
Turning to `Nc1c(C(=O)Nc2ccncc2)sc2nc3c(cc12)CCCCCCCC3`, the GI50 with SF-268 CNS was 954 nM; with 786-0 renal it was 930 nM; with SK-OV-3 ovarian, 846 nM; in the test on COLO 205 colon it was 0.997 µM; in the test on SK-MEL-28 melanoma, 916 nM; in the test with UO-31 renal, 772 nM. In addition, the GI50 in the test on NCI-H460 lung was 995 nM; in the test on RPMI-8226 leukemia it was 1.23 µM; in the test on HOP-92 NSCLC it was 761 nM. Further, the TGI amounted to 1.74 µM in the test with SF-268 CNS; 1.66 µM in the test on 786-0 renal; 1.61 µM in the test with SK-OV-3 ovarian; 2.18 µM with COLO 205 colon; 1.65 µM with SK-MEL-28 melanoma; 1.49 µM in the test with UO-31 renal. Besides, the figures for the TGI in the test with NCI-H460 lung, with RPMI-8226 leukemia and in the test on HOP-92 NSCLC were 1.83 µM, 2.71 µM and 1.49 µM, respectively.
`COc1cc2c(c(OC)c1OC)-c1ccc(SC)c(=O)cc1C(NC=O)CC2` (stereo not given): the TGI with SF-268 CNS is > 100 µM; in the test on 786-0 renal it was > 100 µM; with SK-OV-3 ovarian, 63.9 µM; in the test with COLO 205 colon, < 0.01 µM; with SK-MEL-28 melanoma, > 100 µM; in the test on UO-31 renal it was > 100 µM. Besides, the TGI in the test on RPMI-8226 leukemia is 47.1 µM; with HOP-92 NSCLC, > 100 µM; in the test with HOP-62 NSCLC, > 90.8 µM.
As for `O=c1ccn([C@H]2CSC[C@@H](CO)C2)c(=O)[nH]1`, the TGI in the test with SF-268 CNS, in the test with 786-0 renal, in the test with SK-OV-3 ovarian, in the test with SK-MEL-28 melanoma, with UO-31 renal and with NCI-H460 lung was > 100 µM throughout. Moreover, the TGI with RPMI-8226 leukemia, in the test with HOP-92 NSCLC and with HOP-62 NSCLC was > 100 µM each time.
Consider `Cn1cc(-c2csc(-c3c[nH]c4ccc(F)cc34)n2)c2cnccc21`, for which the GI50 was 1940 nM in the test with SF-268 CNS; 1850 nM in the test on 786-0 renal; 1730 nM in the test on SK-OV-3 ovarian; 1860 nM in the test with SK-MEL-28 melanoma; 1420 nM in the test on UO-31 renal; 1990 nM in the test on NCI-H460 lung. Moreover, the GI50 in the test on HOP-92 NSCLC is 1490 nM; with HOP-62 NSCLC, 1.54 µM. In addition, the TGI amounted to 3.58 µM in the test with SF-268 CNS; 3.47 µM with 786-0 renal; 3.16 µM in the test with SK-OV-3 ovarian; 3.29 µM in the test on SK-MEL-28 melanoma; 2.73 µM in the test with UO-31 renal; 3.95 µM in the test with NCI-H460 lung. Also, the figures for the TGI in the test on HOP-92 NSCLC and in the test with HOP-62 NSCLC were 3.09 µM and 2.98 µM, respectively.
In the case of `C=CCCCCOc1ccccc1-c1cnc(OCCCCC=C)n1C`, the GI50 in the test on SF-268 CNS is 4210 nM; in the test on 786-0 renal, 5290 nM; in the test on SK-OV-3 ovarian, 3960 nM; in the test on COLO 205 colon it was 3.23 µM; with SK-MEL-28 melanoma, 4510 nM; with UO-31 renal it was 3090 nM. Besides, the GI50 is 3.22 µM in the test with RPMI-8226 leukemia, 1810 nM in the test on HOP-92 NSCLC and 5.13 µM in the test with HOP-62 NSCLC. The TGI in the test with SF-268 CNS came out at 21.3 µM; with 786-0 renal it was 21.3 µM; with SK-OV-3 ovarian it was 19.7 µM; in the test on COLO 205 colon it was 11.1 µM; in the test with SK-MEL-28 melanoma it was 31.6 µM; in the test with UO-31 renal, 20.7 µM. In addition, the values for the TGI in the test on RPMI-8226 leukemia, with HOP-92 NSCLC and with HOP-62 NSCLC were 14.1 µM, 19.7 µM and 20.6 µM, respectively.
Regarding `CCCc1nc(NC#N)nc(C(=O)Nc2ccccc2)c1CC`, the TGI with SF-268 CNS, in the test on 786-0 renal, with SK-MEL-28 melanoma, with UO-31 renal, in the test on NCI-H460 lung and in the test with RPMI-8226 leukemia was > 100 µM throughout. Moreover, the TGI in the test with HOP-92 NSCLC and in the test on HOP-62 NSCLC was > 100 µM each time.
Regarding `NC(=O)C12CC3CC(CC(F)(C3)C1)C2`, the TGI in the test with 786-0 renal, in the test on SK-OV-3 ovarian, in the test with COLO 205 colon, with SK-MEL-28 melanoma, in the test on UO-31 renal and with NCI-H460 lung was > 100 µM each time. For the same compound, the TGI with RPMI-8226 leukemia, in the test on HOP-92 NSCLC and with HOP-62 NSCLC was > 100 µM in each case.
